Experimental data: patent US10478437B2, “Combination therapy to enhance the anticancer efficacy of platinum drugs” (University of Pittsburgh-of the Commonwealth System of …, priority 2014, dated 2019)
“Also recorded” adds a separate entry of the source.

Key:
Type in all cases: cell-based, human
[1] = tested on: cisplatin-resistant ovarian cancer cell line A2780cis; test: Caspase-3/7 activity assay (apoptotic cell death), compound alone or with cisplatin; settings: for activation of Caspase-3/7 in combination with cisplatin compared to mdivi-1: FIG. 7A and Table 6; for activation of Caspase-3/7 in combination with cisplatin compared to mdivi-1 / activity in the screen (Caspase-3/7 activity and microscopic examination), active / inactive / Caspase-3/7 activity upon combination with cisplatin compared to cisplatin alone or compound alone: in words; for caspase-3/7 activity (Lum), compound with cisplatin: compound 20 μM with 20 μM cisplatin; for caspase-3/7 activity (Lum), compound with cisplatin / caspase-3/7 activity (Lum), compound alone / caspase-3/7 activity (Lum) with compound and cisplatin (20 μM) / caspase-3/7 activity (Lum) with compound alone: 20 h; for caspase-3/7 activity (Lum) with compound and cisplatin (20 μM) / caspase-3/7 activity (Lum) with compound alone: Table 6; for caspase-3/7 activity (Lum) with compound alone: untreated cells 9 ± 1; for activity in the screen (Caspase-3/7 activity and microscopic examination), active / inactive: alone or in the presence of cisplatin
Protocol: Cell proliferation was determined using a CyQUANT Direct Cell Proliferation Assay kit (Invitrogen), the activity of caspase-3/7 was measured using a Caspase-Glo 3/7 Assay Systems (Promega, Madison, Wis.), and the MTS calorimetric survival assay was performed using the CellTiter 96 AQueous One Solution Cell Proliferation Assay kit (Promega, Madison, Wis.), according to the manufacturer's instructions. The survival fractions were calculated after setting untreated control cells at 100%. The data were plotted and curve fitted using GraphPad Prism software. To quantify the number of cells with active caspase-3, cells were fixed with 4% paraformaldehyde (Electron microscopy sciences, Hatfield, Pa.), stained with Alexa Fluor-488 conjugated antibody against cleaved caspase-3 (Asp175) (Cell Signaling Technology, Danvers, Mass.) followed by flow cytometry. An FITC Annexin V Apoptosis Detection Kit (BD PharMingen, San Diego, Calif.) was used to quantify apoptotic cells, according to the manufacturer's instructions.
A Caspase-3/7 assay was performed to evaluate the activity of the 36 compounds of FIG. 1 in vitro in the cisplatin-resistant ovarian cancer cell line, A2780cis, alone or in the presence of cisplatin. A microscopic examination of apoptotic morphologic changes was also carried out right before the measurement of Caspase-3/7 activity, in order to confirm that the data on the activation of the Caspase-3/7 following treatment is consistent with morphological change and reflects cell death.

A2780cis cells = test: Western blot of caspase/PARP cleavage, Noxa induction, RPA32 and H2AX phosphorylation; settings: compound 20 μM + cisplatin 20 μM, 20 h, FIG. 7B; in words
Protocol: Whole cell lysate was prepared by lysing cells in cell lysis buffer (Cell signaling technology) containing complete protease inhibitor (Roche). Cell lysates were then cleared at 15,000 rpm for 15 min at 4° C. The protein content was quantified using a Bio-Rad Protein Assay kit (Bio-Rad Laboratories, Hercules, Calif.). The equal amount of protein was separated on Tris-glycine gels (Invitrogen). The separated proteins were blotted onto a polyvinylidene difluoride membrane and blocked overnight at 4° C. in phosphate-buffered saline containing 0.1% Tween 20 and 10% nonfat dry milk (blocking buffer). Membranes were incubated with primary antibodies in blocking buffer overnight at 4° C. Primary antibodies used were: β-actin from Sigma; Bax, Bak, Caspase-9 and cleaved Caspase-3 from Cell Signaling Technology; phospho-Histone H2AX (Ser 139) and Noxa from Millipore. Membranes were then washed and incubated in peroxidase conjugated anti-rabbit IgG (Sigma) or anti-mouse IgG (Sigma) secondary antibody for 1 h at room temperature. Membranes were developed using SuperSignal West Femto Maximum Sensitivity Substrate (Thermo Fisher Scientific).
A2780cis cells were treated with cisplatin alone, compounds alone or in combination with cisplatin at indicated concentrations for 20 h to analyze apoptotic cell death in response to treatment. […] Expression and cleavage of several major caspases (Caspase-8, Caspase-9 and Caspase-3), as well as poly(ADP-ribose) polymerase (PARP) and NOXA. A2780cis cells were treated with cisplatin (20 μM) alone, compounds (20 μM) alone or in combination with cisplatin for 20 h.
To determine the effects of the compounds on DNA damage and mitochondrial dysfunction, A2780cis cells were treated with cisplatin (20 μM) alone or the combination of cisplatin with 20 μM of compound 1-6. Replication protein A (RPA) is a single strand-specific DNA-binding protein, consisting of three subunits, RPA70, RPA32, and RPA14. RPA32 is phosphorylated in response to DNA replication stress. Western blot analysis was performed to evaluate the phosphorylation of RPA32 and histone H2AX, the induction of Noxa expression and cleavage of caspase-3. […] A2780cis cells were treated with cisplatin (50 μM) alone, 1-6 (50 μM) alone or the combination of cisplatin and compound 1-6 for 4 h. The oxygen consumption rate (OCR) was measured by a Seahorse extracellular flux analyzer.

[2] = tested on: cisplatin-resistant ovarian cancer cell line A2780cis; test: CellTiter-Blue cell viability assay, compound alone or with cisplatin or carboplatin, 24 h; settings: for cell viability after combination with carboplatin compared to carboplatin alone / viability at 10 µM / viability at 20 µM / viability at 50 µM / Survival (%) of cells with compound and carboplatin (200 μM) / survival (%) of cells with compound and cisplatin (20 μM): 24 h; for cell viability after combination with carboplatin compared to carboplatin alone: FIG. 6; for viability at 10 µM / viability at 20 µM / viability at 50 µM: Homo sapiens, A2780cis, untreated cells = 100%, read-out: survival (%) of cells with compound alone; for viability at 10 µM: compound 10 μM; for viability at 20 µM: compound 20 μM; for viability at 50 µM: compound 50 μM
Protocol: Data were expressed as mean±standard deviation. A Student's t test was used for the comparisons between the treatment with the combination of analogs with cisplatin and with analogs alone. P<0.05 was considered statistically significant. Combination index was calculated using CompuSyn software. A value of 0.3-0.7 for the combination index indicates synergism, 0.1-0.3 indicates strong synergism, and <0.1 indicates very strong synergism (Chou, 2006).
To further validate the activity of the identified 11 active compounds (see FIG. 3), a CellTiter-Blue cell viability assay was performed with increasing concentrations (10 μM, 20 μM and 50 μM) of the disclosed compounds (see FIG. 4 and Table 5). Cisplatin resistant ovarian cancer cells (A2780cis) were treated with a disclosed compound alone, cisplatin alone or a combination of a compound with cisplatin for 24 h to determine the effects of the compounds on cell viability.
Analysis of the effect of the disclosed compounds with another platinum-containing compound, carboplatin, was performed. A2780cis cells were treated with carboplatin alone or with the combination of carboplatin and the disclosed compounds at indicated concentrations for 24 h followed by the analysis of cell viability.

[3] = Table 1, compound 20 μM, mean ± S.D. of triplicates
[4] = compound 5 μM + cisplatin 20 μM
[5] = compound 10 μM + cisplatin 20 μM
[6] = compound 20 μM + cisplatin 20 μM
[7] = compound 10 μM + carboplatin 200 μM
[8] = compound 20 μM + carboplatin 200 μM
[9] = compound 50 μM + carboplatin 200 μM
[10] = compound 50 μM + cisplatin 20 μM

For CCCn1c(=S)[nH]c2cc(OC)c(OC)cc2c1=O [Compound 1-8], the “activation of Caspase-3/7 in combination with cisplatin compared to mdivi-1” value (“activation … compared to mdivi-1” for short) [1] was “more effective; also recorded: more potent than mdivi-1”, the “caspase-3/7 activity (Lum), compound with cisplatin” value ([1]; Table 1) was 121 ± 4 Lum and the “caspase-3/7 activity (Lum), compound alone” value [1, 3] was 14 ± 2 Lum. For the same compound, the “caspase-3/7 activity (Lum), compound alone” value ([1]; Table 2, compound 20 μM) was 14 ± 2 Lum, the “caspase-3/7 activity (Lum) with compound and cisplatin (20 μM)” value (shortened to “caspase-3/7 activity (Lum) … (20 μM)”) [1, 4] was 38 ± 4 Lum and the “caspase-3/7 activity (Lum) with compound alone” value ([1]; compound 5 μM) was 10 ± 1 Lum. The “caspase-3/7 activity (Lum) … (20 μM)” value [1, 5] was 72 ± 1 Lum, the “caspase-3/7 activity (Lum) with compound alone” value ([1]; compound 10 μM) was 10 ± 1 Lum and the “caspase-3/7 activity (Lum) … (20 μM)” value [1, 6] was 93 ± 4 Lum. The “caspase-3/7 activity (Lum) with compound alone” value ([1]; compound 20 μM) was 11 ± 1 Lum, the “activity in the screen (Caspase-3/7 activity and microscopic examination), active / inactive” value (“activity in the screen … active / inactive” below) [1] was “active” and the “Caspase-3/7 activity upon combination with cisplatin compared to cisplatin alone or compound alone” value [1] was “increase in Caspase-3/7 activity”. For the same compound, the “cleavage of caspases and PARP, induction of Noxa in combination with cisplatin” value (from here on “cleavage of caspases and PARP”) (A2780cis cells) was “cleavage of Caspase-8, 9, 3, PARP and the induction of Noxa”, the “cell viability after combination with carboplatin compared to carboplatin alone” value (“cell viability … compared to carboplatin alone” below) ([2]; in words) was “cell viability was reduced” and the viability at 10 µM [2] was 99.6 ± 2.9%. For the same compound, the viability at 20 µM [2] was 96.3 ± 3.2%, the viability at 50 µM [2] was 88.4 ± 2.1% and the “Survival (%) of cells with compound and carboplatin (200 μM)” value (“Survival (%) of cells … (200 μM)” below) [2, 7] was 89.5 + 2.1%. The “survival (%) of cells with compound and cisplatin (20 μM)” value (from here on “survival (%) of cells … (20 μM)”) [2, 5] was 53.4 ± 1.5%, the “potency at enhancing the cytotoxicity of cisplatin compared to mdivi-1” value ([2]; compound 10 μM with cisplatin, FIG. 4, in words) was “more potent than mdivi-1” and the “Survival (%) of cells … (200 μM)” value [2, 8] was 65.8 ± 3.5%. The “survival (%) of cells … (20 μM)” value [2, 6] was 25.9 ± 2.3%, the “Survival (%) of cells … (200 μM)” value [2, 9] was 42.5 ± 2.3% and the “survival (%) of cells … (20 μM)” value [2, 10] was 17.9 ± 1.3%.
With Cc1ccc(-n2c(=S)[nH]c3ccccc3c2=O)cc1F [Compound 1-17] the “activation … compared to mdivi-1” value [1] was “more effective; also recorded: more potent than mdivi-1”, the “caspase-3/7 activity (Lum), compound with cisplatin” value ([1]; Table 1) was 123 ± 5 Lum and the “caspase-3/7 activity (Lum), compound alone” value [1, 3] was 10 ± 2 Lum. The “caspase-3/7 activity (Lum), compound alone” value ([1]; Table 2, compound 20 μM) was 10 ± 2 Lum, the “caspase-3/7 activity (Lum) … (20 μM)” value [1, 4] was 34 ± 3 Lum and the “caspase-3/7 activity (Lum) with compound alone” value ([1]; compound 5 μM) was 15 ± 8 Lum. The “caspase-3/7 activity (Lum) … (20 μM)” value [1, 5] was 76 ± 7 Lum, the “caspase-3/7 activity (Lum) with compound alone” value ([1]; compound 10 μM) was 10 ± 1 Lum and the “caspase-3/7 activity (Lum) … (20 μM)” value [1, 6] was 101 ± 6 Lum. The “caspase-3/7 activity (Lum) with compound alone” value ([1]; compound 20 μM) was 10 ± 1 Lum, the “activity in the screen … active / inactive” value [1] was “active” and the “Caspase-3/7 activity upon combination with cisplatin compared to cisplatin alone or compound alone” value [1] was “increase in Caspase-3/7 activity”. For the same compound, the “cleavage of caspases and PARP” value (A2780cis cells) was “cleavage of Caspase-8, 9, 3, PARP and the induction of Noxa”, the “cell viability … compared to carboplatin alone” value ([2]; in words) was “cell viability was reduced” and the viability at 10 µM [2] was 101 ± 2.9%. The viability at 20 µM [2] was 101 ± 2.1%, the viability at 50 µM [2] was 101 ± 1.4% and the “Survival (%) of cells … (200 μM)” value [2, 7] was 90.7 ± 0.9%. The “survival (%) of cells … (20 μM)” value [2, 5] was 63.0 ± 1.1%, the “Survival (%) of cells … (200 μM)” value [2, 8] was 79.3 ± 3.9% and the “survival (%) of cells … (20 μM)” value [2, 6] was 39.6 ± 3.0%. For the same compound, the “Survival (%) of cells … (200 μM)” value [2, 9] was 69.7 ± 4.1% and the “survival (%) of cells … (20 μM)” value [2, 10] was 26.7 ± 1.4%.
For CCc1ccccc1-n1c(=S)[nH]c2ccccc2c1=O [Compound 1-19], the “activation … compared to mdivi-1” value [1] was “more effective; also recorded: more potent than mdivi-1”, the “caspase-3/7 activity (Lum), compound with cisplatin” value ([1]; Table 1) was 136 ± 12 Lum and the “caspase-3/7 activity (Lum), compound alone” value [1, 3] was 12 ± 1 Lum. The “caspase-3/7 activity (Lum), compound alone” value ([1]; Table 2, compound 20 μM) was 12 ± 1 Lum, the “caspase-3/7 activity (Lum) … (20 μM)” value [1, 4] was 36 ± 3 Lum and the “caspase-3/7 activity (Lum) with compound alone” value ([1]; compound 5 μM) was 9 ± 2 Lum. For the same compound, the “caspase-3/7 activity (Lum) … (20 μM)” value [1, 5] was 114 ± 5 Lum, the “caspase-3/7 activity (Lum) with compound alone” value ([1]; compound 10 μM) was 8 ± 1 Lum and the “caspase-3/7 activity (Lum) … (20 μM)” value [1, 6] was 96 ± 11 Lum. The “caspase-3/7 activity (Lum) with compound alone” value ([1]; compound 20 μM) was 9 ± 1 Lum, the “activity in the screen … active / inactive” value [1] was “active” and the “Caspase-3/7 activity upon combination with cisplatin compared to cisplatin alone or compound alone” value [1] was “increase in Caspase-3/7 activity”. For the same compound, the “cleavage of caspases and PARP” value (A2780cis cells) was “cleavage of Caspase-8, 9, 3, PARP and the induction of Noxa”, the “cell viability … compared to carboplatin alone” value ([2]; in words) was “cell viability was reduced” and the viability at 10 µM [2] was 103 ± 1.2%. The viability at 20 µM [2] was 99.6 ± 3%, the viability at 50 µM [2] was 98.5 ± 1.7% and the “Survival (%) of cells … (200 μM)” value [2, 7] was 103.5 ± 1.6%. For the same compound, the “survival (%) of cells … (20 μM)” value [2, 5] was 47.9 ± 4.8%, the “Survival (%) of cells … (200 μM)” value [2, 8] was 70.0 ± 2.9% and the “survival (%) of cells … (20 μM)” value [2, 6] was 25.3 ± 1.0%. For the same compound, the “Survival (%) of cells … (200 μM)” value [2, 9] was 31.6 ± 4.2% and the “survival (%) of cells … (20 μM)” value [2, 10] was 4.9 ± 1.4%.
